Among the test systems are UACC-62 melanoma; MOLT-4 leukemia; A498 renal; OVCAR-8 ovarian; KM12 colon; CCRF-CEM leukemia; SK-MEL-2 melanoma; SF-539 CNS; K-562 leukemia; CAKI-1 renal.
What all share (assay): NCI anticancer screen, dose series, 48 h

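Assay format: 96-well plates, 48-hour exposure. Here, GI50 denotes the concentration required for 50% inhibition of growth. TGI is the concentration that stops growth completely.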

As to `CC1=NC(=N)N=C(C)C1N=Nc1ccc2nc(C)[nH]c2c1` (stereo not given), the TGI in the test on UACC-62 melanoma, in the test on MOLT-4 leukemia, in the test with A498 renal, in the test on OVCAR-8 ovarian, in the test on KM12 colon and with CCRF-CEM leukemia was more than 100 µM in each case. The TGI in the test with SK-MEL-2 melanoma, in the test with SF-539 CNS, in the test with K-562 leukemia and in the test on CAKI-1 renal was more than 100 µM throughout.

Consider `C[C@H]1CCC/C=C/[C@@H]2C[C@H](OC3OC(CO)C(O)C(O)C3O)C[C@H]2[C@H](O)/C=C/C(=O)O1` (stereo not given in full), for which the TGI with UACC-62 melanoma is more than 100 µM; with MOLT-4 leukemia it was more than 100 µM; in the test with A498 renal, 69.1 µM; with OVCAR-8 ovarian, more than 100 µM; in the test on KM12 colon it was 98 µM; with CCRF-CEM leukemia, more than 100 µM. The TGI with SK-MEL-2 melanoma, in the test with SF-539 CNS, with K-562 leukemia and in the test on CAKI-1 renal was more than 100 µM in each case.

In the case of `CCOC(=O)CNC(=O)c1[nH]cnc1/N=N/N(C)C`, the TGI in the test with UACC-62 melanoma, in the test with MOLT-4 leukemia, with A498 renal, with OVCAR-8 ovarian, in the test on KM12 colon and with CCRF-CEM leukemia was more than 100 µM in each case. Besides, the TGI with SK-MEL-2 melanoma, in the test on SF-539 CNS, in the test on K-562 leukemia and with CAKI-1 renal was more than 100 µM in each case.

As to `O=C1/C(=C\c2cccc(Oc3ccccc3)c2)SC(c2ccccc2)N1c1cc(Cl)ccc1Cl` (stereo not given), the TGI with UACC-62 melanoma is more than 100 µM; with MOLT-4 leukemia it was more than 100 µM; with A498 renal, more than 100 µM; in the test on OVCAR-8 ovarian, 57 µM; in the test with KM12 colon it was more than 100 µM; in the test on CCRF-CEM leukemia, 3.62 µM. For the same molecule, the TGI with SK-MEL-2 melanoma was more than 100 µM; with SF-539 CNS, 88.5 µM; in the test with K-562 leukemia, more than 100 µM; in the test on CAKI-1 renal it was more than 100 µM.

`COc1c(OC2OC(CO)C(O)C(O)C2O)cc2c(c1OC)-c1ccc(OC)c(=O)cc1C(NC(C)=O)CC2` (stereo not given): the TGI in the test with UACC-62 melanoma, in the test on MOLT-4 leukemia, in the test with A498 renal, in the test on OVCAR-8 ovarian, with KM12 colon and in the test with CCRF-CEM leukemia was more than 100 µM each time. Also, the TGI with SK-MEL-2 melanoma, in the test on SF-539 CNS, in the test with K-562 leukemia and with CAKI-1 renal was more than 100 µM throughout.

Regarding `O=c1[nH]c2c(Nc3c4ccccc4nc4ccccc34)c([N+](=O)[O-])c(Nc3c4ccccc4nc4ccccc34)c([N+](=O)[O-])c2[nH]1`, the TGI was 3.32 µM with UACC-62 melanoma; 2.39 µM with MOLT-4 leukemia; 3.35 µM in the test on A498 renal; 12.6 µM with OVCAR-8 ovarian; 12 µM in the test on KM12 colon; 6.02 µM in the test with CCRF-CEM leukemia. Also, the TGI in the test on SK-MEL-2 melanoma is 3.93 µM; in the test with SF-539 CNS, 18.6 µM; in the test on K-562 leukemia it was 11.7 µM; in the test on CAKI-1 renal it was 6.69 µM.

Take `CC1(C)C(=O)/C(=C/c2ccccc2)C(C)(C)C1(C)C`: the TGI is more than 100 µM in the test on UACC-62 melanoma; more than 100 µM in the test with MOLT-4 leukemia; more than 96.2 µM in the test on A498 renal; more than 100 µM in the test with OVCAR-8 ovarian; more than 100 µM with KM12 colon; more than 71.5 µM with CCRF-CEM leukemia. The TGI with SK-MEL-2 melanoma, with SF-539 CNS, in the test on K-562 leukemia and with CAKI-1 renal was more than 100 µM in each case.

In the case of `Cn1c(CO)ccc1-c1ccc(-c2ccc(CO)[se]2)[se]1`, the TGI is 31.5 µM with UACC-62 melanoma; more than 51.2 µM in the test with MOLT-4 leukemia; 0.0684 µM in the test on A498 renal; 55.6 µM in the test with OVCAR-8 ovarian; more than 64.1 µM in the test on KM12 colon; more than 21 µM in the test on CCRF-CEM leukemia. The TGI was 26.9 µM in the test with SK-MEL-2 melanoma, more than 100 µM with SF-539 CNS, 98.5 µM in the test with K-562 leukemia and 0.0381 µM in the test with CAKI-1 renal.

On to `O=c1c2ccc(Cl)cc2oc2c(CSc3ccccc3)cccc12`, for which the TGI in the test on UACC-62 melanoma was more than 83.3 µM; with MOLT-4 leukemia, more than 100 µM; in the test on A498 renal, more than 79.1 µM; in the test with OVCAR-8 ovarian, more than 100 µM; in the test with KM12 colon, more than 65.3 µM; in the test with CCRF-CEM leukemia, more than 100 µM. The TGI was more than 100 µM with SK-MEL-2 melanoma, more than 60.7 µM in the test with SF-539 CNS, more than 100 µM in the test with K-562 leukemia and more than 79.7 µM with CAKI-1 renal.

On to `COC(=O)CCC(C)[C@H]1CCC2C3CC[C@@H]4CC5(CC[C@]4(C)C3C[C@H](OC(C)=O)[C@@]21C)OOC1(CCCCC1)OO5` (stereo not given in full), for which the TGI in the test on UACC-62 melanoma, in the test on MOLT-4 leukemia, in the test with A498 renal, in the test with OVCAR-8 ovarian, in the test with KM12 colon and in the test on CCRF-CEM leukemia was more than 100 µM in each case. Also, the TGI in the test on SK-MEL-2 melanoma is 52.2 µM; in the test with SF-539 CNS, more than 100 µM; in the test with K-562 leukemia, more than 100 µM; in the test on CAKI-1 renal, 37 µM.

With `N#Cc1cc(F)cc(Oc2ccc(S(=O)(=O)C(F)F)c3c2CC(F)(F)[C@H]3O)c1`, the GI50 in the test on UACC-62 melanoma was 21.7 µM; in the test with MOLT-4 leukemia, 27.6 µM; in the test on A498 renal, 20.6 µM; with OVCAR-8 ovarian, 33.8 µM; in the test on KM12 colon it was 44.8 µM; with CCRF-CEM leukemia, 22.9 µM. Further, the GI50 is 16.4 µM with SK-MEL-2 melanoma, 37 µM with SF-539 CNS, 27.1 µM in the test with K-562 leukemia and 27.7 µM in the test on CAKI-1 renal. The TGI in the test on UACC-62 melanoma was more than 100 µM; in the test on MOLT-4 leukemia, more than 100 µM; in the test on A498 renal, 73.6 µM; in the test on OVCAR-8 ovarian, more than 100 µM; in the test with KM12 colon it was more than 100 µM; in the test with CCRF-CEM leukemia, more than 100 µM. For the same molecule, the TGI was 59.8 µM in the test on SK-MEL-2 melanoma, more than 100 µM in the test with SF-539 CNS, more than 100 µM in the test on K-562 leukemia and more than 100 µM in the test with CAKI-1 renal.

With `C/C(CCN(C)C)=N/O`, the TGI was 24 µM in the test with UACC-62 melanoma; 4.82 µM in the test with MOLT-4 leukemia; 35.1 µM with A498 renal; 22.8 µM in the test with OVCAR-8 ovarian; 25.5 µM in the test on KM12 colon; 7.14 µM with CCRF-CEM leukemia. Further, the TGI is 31.5 µM in the test on SK-MEL-2 melanoma, 1.89 µM in the test on SF-539 CNS, 6.97 µM in the test on K-562 leukemia and 24.2 µM in the test on CAKI-1 renal.

These data come from PubChem BioAssay (NCI).
